Measured values taken from ChEMBL document CHEMBL5120948, “Ynamide Electrophile for the Profiling of Ligandable Carboxyl Residues in Live Cells and the Development of New Covalent Inhibitors” (J Med Chem, 2022).
Blank lines part the entries; values can stand above or below the molecule they belong to. The source made the active and inactive calls. No cut-off for these calls is given here.

Tests used:
Albumin [1] = biological target: T1, Albumin (Bos taurus, UniProt P02769); assay: Binding affinity to bovine serum albumin assessed as increase in fluorescence intensity at 10 uM measured after 4 hrs by TAMRA-N3 based In-gel fluorescence scanning analysis; details: cattle
T1 sequence (P02769 whole entry): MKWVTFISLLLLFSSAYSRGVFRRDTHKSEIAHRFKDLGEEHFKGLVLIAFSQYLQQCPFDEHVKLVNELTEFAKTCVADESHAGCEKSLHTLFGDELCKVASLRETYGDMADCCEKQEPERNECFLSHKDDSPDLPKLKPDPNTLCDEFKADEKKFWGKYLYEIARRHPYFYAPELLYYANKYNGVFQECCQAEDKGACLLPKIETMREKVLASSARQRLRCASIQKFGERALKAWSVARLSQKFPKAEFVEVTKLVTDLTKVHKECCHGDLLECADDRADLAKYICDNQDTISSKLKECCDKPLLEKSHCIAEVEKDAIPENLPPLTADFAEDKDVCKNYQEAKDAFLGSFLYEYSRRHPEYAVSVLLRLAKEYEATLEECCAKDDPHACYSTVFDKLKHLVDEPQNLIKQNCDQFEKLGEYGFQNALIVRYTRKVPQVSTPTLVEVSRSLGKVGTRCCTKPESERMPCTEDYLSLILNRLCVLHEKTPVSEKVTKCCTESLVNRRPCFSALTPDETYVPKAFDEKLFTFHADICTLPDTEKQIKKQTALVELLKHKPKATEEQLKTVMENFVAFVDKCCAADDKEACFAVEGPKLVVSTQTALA

[2] = biological target: Dual specificity mitogen-activated protein kinase kinase 2 (Homo sapiens) (UniProt P36507); assay: Stabilization of MEK2 in human HepG2 cells assessed as increase in thermal stability at 50 uM incubated for 3 hrs by cellular thermal shift assay; format: cell-based
Sequence of Dual specificity mitogen-activated protein kinase kinase 2 (Homo sapiens) (P36507 whole entry): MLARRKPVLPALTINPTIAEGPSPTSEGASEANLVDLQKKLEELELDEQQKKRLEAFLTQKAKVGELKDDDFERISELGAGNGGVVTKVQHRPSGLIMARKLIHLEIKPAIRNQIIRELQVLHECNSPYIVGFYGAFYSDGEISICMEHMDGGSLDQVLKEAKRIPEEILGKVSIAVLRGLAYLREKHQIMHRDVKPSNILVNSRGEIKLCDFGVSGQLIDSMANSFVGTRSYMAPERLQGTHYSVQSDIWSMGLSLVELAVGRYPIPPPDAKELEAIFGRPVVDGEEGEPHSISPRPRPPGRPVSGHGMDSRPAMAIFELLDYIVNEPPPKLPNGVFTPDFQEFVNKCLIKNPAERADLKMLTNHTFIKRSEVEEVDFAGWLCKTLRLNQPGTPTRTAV

Catalase (Homo sapiens) = Catalase (Homo sapiens) (UniProt P04040); assay: Binding affinity to catalase (unknown origin) measured after 30 mins by TAMRA-N3 based In-gel fluorescence scanning analysis; details: dose 5-50 µM
Sequence of Catalase (Homo sapiens) (P04040 whole entry): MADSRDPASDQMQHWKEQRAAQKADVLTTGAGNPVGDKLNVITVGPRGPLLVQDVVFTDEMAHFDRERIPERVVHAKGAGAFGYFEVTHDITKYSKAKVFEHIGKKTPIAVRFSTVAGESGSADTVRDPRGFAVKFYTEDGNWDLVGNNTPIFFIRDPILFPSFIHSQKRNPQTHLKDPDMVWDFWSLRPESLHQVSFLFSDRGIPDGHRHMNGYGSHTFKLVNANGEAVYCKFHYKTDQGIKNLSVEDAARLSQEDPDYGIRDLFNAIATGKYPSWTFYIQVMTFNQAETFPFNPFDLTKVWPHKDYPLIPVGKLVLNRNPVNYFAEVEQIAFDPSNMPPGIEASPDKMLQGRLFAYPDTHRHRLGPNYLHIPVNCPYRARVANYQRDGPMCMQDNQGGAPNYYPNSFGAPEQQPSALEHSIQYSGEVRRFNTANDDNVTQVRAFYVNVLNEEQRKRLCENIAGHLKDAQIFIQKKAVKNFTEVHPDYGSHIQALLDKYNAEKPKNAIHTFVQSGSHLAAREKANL

HepG2 [3] = assay: Inhibition of ERK phosphorylation in human HepG2 cells at 5 to 40 uM by Western blot analysis; format: cell-based; details: dose 5-40 µM
[4] = tested on: GTPase KRas (Homo sapiens), P01116 [G12D]; assay: Binding affinity to KRAS G12D mutant (unknown origin) measured after 30 mins by TAMRA-N3 based In-gel fluorescence scanning analysis; details: dose 5-50 µM
Sequence of GTPase KRas (Homo sapiens), P01116 [G12D] (P01116 whole entry G12D, looked up): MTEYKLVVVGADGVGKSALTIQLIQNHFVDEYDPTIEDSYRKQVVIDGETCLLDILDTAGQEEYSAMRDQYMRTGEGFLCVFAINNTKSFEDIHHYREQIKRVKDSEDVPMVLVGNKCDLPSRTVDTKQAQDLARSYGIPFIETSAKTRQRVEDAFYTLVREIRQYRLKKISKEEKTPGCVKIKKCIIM

HepG2 [5] = assay: Binding affinity to G3P in human HepG2 cells at 100 uM incubated for 8 hrs by pull-down/Western blot analysis; format: cell-based
Homo sapiens = species on record: Homo sapiens; assay: Binding affinity to beta-amylase (unknown origin) measured after 30 mins by TAMRA-N3 based In-gel fluorescence scanning analysis; details: dose 5-50 µM
Albumin [6] = biological target: T1, Albumin; assay: Binding affinity to bovine serum albumin assessed as increase in fluorescence intensity at 5 uM measured after 30 mins by TAMRA-N3 based In-gel fluorescence scanning analysis; details: cattle, 0.5 h
[7] = biological target: Dual specificity mitogen-activated protein kinase kinase 2 (Homo sapiens) (UniProt P36507); assay: Binding affinity to MEK2 in human HepG2 cells at 100 uM incubated for 8 hrs by pull-down/Western blot analysis; format: cell-based
[8] = Binding affinity to glutamic acid in aqueous solution measured within 3 hrs by HPLC analysis
[9] = biological target: Delta(3,5)-Delta(2,4)-dienoyl-CoA isomerase, mitochondrial (Homo sapiens) (UniProt Q13011); assay: Binding affinity to ECH1 in human HepG2 cells at 100 uM incubated for 8 hrs by pull-down/Western blot analysis; format: cell-based
Sequence of Delta(3,5)-Delta(2,4)-dienoyl-CoA isomerase, mitochondrial (Homo sapiens) (Q13011 whole entry): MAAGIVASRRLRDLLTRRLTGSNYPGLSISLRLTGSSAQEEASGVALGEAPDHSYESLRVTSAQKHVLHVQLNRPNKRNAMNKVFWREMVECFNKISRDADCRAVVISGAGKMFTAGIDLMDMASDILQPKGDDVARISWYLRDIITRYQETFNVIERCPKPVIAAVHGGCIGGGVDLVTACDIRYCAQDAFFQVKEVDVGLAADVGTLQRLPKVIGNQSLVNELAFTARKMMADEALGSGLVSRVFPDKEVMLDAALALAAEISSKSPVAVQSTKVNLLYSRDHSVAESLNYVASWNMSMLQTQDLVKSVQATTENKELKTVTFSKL

[10] = biological target: Aldehyde dehydrogenase 1A1 (Homo sapiens) (UniProt P00352); assay: Binding affinity to ALDH1 in human HepG2 cells at 100 uM incubated for 8 hrs by pull-down/Western blot analysis; format: cell-based
Sequence of Aldehyde dehydrogenase 1A1 (Homo sapiens) (P00352 whole entry): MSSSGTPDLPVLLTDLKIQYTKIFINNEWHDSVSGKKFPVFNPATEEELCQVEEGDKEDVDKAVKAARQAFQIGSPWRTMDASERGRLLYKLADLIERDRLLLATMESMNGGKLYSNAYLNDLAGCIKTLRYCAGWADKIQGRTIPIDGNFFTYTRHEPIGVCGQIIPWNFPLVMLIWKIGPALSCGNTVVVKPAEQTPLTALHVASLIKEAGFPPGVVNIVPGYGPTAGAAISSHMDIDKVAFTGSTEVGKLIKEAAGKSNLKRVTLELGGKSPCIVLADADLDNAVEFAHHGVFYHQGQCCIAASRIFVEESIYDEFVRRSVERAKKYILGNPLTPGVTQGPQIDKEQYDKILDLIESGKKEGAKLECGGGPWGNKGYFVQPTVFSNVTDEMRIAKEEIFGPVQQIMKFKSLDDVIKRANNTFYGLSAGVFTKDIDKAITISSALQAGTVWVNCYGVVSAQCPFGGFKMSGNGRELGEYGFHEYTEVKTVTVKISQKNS

Albumin [11] = biological target: T1, Albumin; assay: Binding affinity to bovine serum albumin assessed as increase in fluorescence intensity at 10 uM measured after 4 hrs in presence of N,4-Dimethyl-N-(phenylethynyl)benzenesulfonamide by TAMRA-N3 based In-gel fluorescence scanning analysis; details: cattle
[12] = Stability of the compound in DMSO/H2O solution measured after 7 days by 1H-NMR analysis; format: physicochemical; details: 168 h; time 7 day
[13] = biological target: Aldehyde dehydrogenase, mitochondrial (Homo sapiens) (UniProt P05091); assay: Binding affinity to ALDH2 in human HepG2 cells at 100 uM incubated for 8 hrs by pull-down/Western blot analysis; format: cell-based
Sequence of Aldehyde dehydrogenase, mitochondrial (Homo sapiens) (P05091 whole entry): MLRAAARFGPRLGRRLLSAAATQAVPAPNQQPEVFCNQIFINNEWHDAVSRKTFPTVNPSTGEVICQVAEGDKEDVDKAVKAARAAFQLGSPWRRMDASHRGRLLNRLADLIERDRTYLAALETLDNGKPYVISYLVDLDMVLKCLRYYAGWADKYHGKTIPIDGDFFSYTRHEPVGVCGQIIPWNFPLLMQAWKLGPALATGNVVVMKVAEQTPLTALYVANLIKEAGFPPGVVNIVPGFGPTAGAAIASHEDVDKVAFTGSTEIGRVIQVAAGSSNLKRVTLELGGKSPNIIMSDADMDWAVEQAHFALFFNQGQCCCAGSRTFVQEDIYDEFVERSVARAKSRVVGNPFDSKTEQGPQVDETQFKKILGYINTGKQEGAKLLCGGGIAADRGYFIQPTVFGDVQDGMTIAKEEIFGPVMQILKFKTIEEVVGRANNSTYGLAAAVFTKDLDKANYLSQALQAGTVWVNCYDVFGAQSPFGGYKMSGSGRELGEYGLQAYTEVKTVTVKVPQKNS

[14] = biological target: Epidermal growth factor receptor (Homo sapiens) (UniProt P00533); assay: Inhibition of EGFR phosphorylation in human NCI-H3255 cells at 0.22 to 20 uM; format: cell-based; details: dose 0.22-20 µM
[15] = tested on: Epidermal growth factor receptor (Homo sapiens), P00533 [L858R]; assay: Binding affinity to EGFR L858R mutant in human NCI-H3255 cells assessed as increase in thermal stability at 0.5 uM incubated for 3 hrs by cellular thermal shift assay; format: cell-based
NCI-H3255 [16] = assay: Inhibition of colony formation in human NCI-H3255 cells at 1.1 uM by Giemsa staining based assay; format: functional, cell-based
[17] = biological target: ATP-dependent translocase ABCB1 (Homo sapiens, UniProt P08183); assay: Binding affinity to MDR1 in human HepG2 cells at 10 uM incubated for 8 hrs by pull-down/LC-MS/MS analysis; format: cell-based; details: hepg2, 8 h
[18] = tested on: Epidermal growth factor receptor (Homo sapiens), P00533 [L858R]; assay: Binding affinity to EGFR L858R mutant in human NCI-H3255 cells at 10 uM incubated for 8 hrs by pull-down/Western blot analysis; format: cell-based
[19] = Growth inhibition of mouse Ba/F3 EGFR cells incubated for 72 hrs by CCK8 assay; format: functional, cell-based
[20] = biological target: Glutathione S-transferase 3, mitochondrial (Homo sapiens) (UniProt O14880); assay: Binding affinity to MGST3 in human HepG2 cells at 10 uM incubated for 8 hrs by pull-down/LC-MS/MS analysis; format: cell-based
Sequence of Glutathione S-transferase 3, mitochondrial (Homo sapiens) (O14880 whole entry): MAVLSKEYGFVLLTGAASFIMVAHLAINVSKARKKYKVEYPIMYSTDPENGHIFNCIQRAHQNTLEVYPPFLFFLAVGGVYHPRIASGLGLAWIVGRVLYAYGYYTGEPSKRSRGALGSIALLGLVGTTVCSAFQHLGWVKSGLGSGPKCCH

[21] = biological target: Ubiquitin-like modifier-activating enzyme 1 (Homo sapiens) (UniProt P22314); assay: Binding affinity to UBA1 in human HepG2 cells at 10 uM incubated for 8 hrs by pull-down/LC-MS/MS analysis; format: cell-based
Sequence of Ubiquitin-like modifier-activating enzyme 1 (Homo sapiens) (P22314 whole entry): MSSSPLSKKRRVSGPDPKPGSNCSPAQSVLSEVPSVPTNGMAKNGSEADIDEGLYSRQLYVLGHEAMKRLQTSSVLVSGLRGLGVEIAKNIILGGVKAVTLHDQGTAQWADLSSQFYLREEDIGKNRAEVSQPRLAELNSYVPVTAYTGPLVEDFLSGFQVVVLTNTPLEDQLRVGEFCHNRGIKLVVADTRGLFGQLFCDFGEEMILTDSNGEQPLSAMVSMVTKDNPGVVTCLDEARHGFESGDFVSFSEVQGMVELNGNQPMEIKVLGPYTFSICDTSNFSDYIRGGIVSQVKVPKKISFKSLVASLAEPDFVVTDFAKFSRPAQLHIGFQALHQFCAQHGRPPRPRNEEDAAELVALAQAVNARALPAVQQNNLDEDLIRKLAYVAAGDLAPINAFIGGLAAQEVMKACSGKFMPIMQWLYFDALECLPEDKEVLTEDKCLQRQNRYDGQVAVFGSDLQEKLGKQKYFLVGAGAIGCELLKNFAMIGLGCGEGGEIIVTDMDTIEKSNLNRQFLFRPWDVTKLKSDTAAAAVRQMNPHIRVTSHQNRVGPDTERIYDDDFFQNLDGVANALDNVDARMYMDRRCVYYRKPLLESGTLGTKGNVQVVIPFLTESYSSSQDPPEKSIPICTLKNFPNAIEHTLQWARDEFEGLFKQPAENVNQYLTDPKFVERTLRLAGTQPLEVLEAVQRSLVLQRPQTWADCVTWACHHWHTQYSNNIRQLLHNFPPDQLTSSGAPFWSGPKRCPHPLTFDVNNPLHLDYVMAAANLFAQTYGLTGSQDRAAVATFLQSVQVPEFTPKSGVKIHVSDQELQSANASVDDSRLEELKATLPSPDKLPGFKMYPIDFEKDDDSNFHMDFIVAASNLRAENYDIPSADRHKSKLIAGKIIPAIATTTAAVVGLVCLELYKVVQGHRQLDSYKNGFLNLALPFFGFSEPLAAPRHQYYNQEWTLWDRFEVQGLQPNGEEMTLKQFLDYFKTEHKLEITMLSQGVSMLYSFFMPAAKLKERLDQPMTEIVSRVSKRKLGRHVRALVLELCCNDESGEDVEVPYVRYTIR

A549 = assay: cells; format: functional, cell-based; details: Homo sapiens, A549, 72 h
Description: Growth inhibition of human A549 cells expressing EGFR incubated for 72 hrs by CCK8 assay

[22] = biological target: Epidermal growth factor receptor (Homo sapiens) (UniProt P00533); assay: Inhibition of EGFR in human NCI-H3255 cells assessed as decrease in AKT phosphorylation level at 0.22 to 20 uM; format: cell-based; details: dose 0.22-20 µM
[23] = tested on: Epidermal growth factor receptor (Homo sapiens), P04626+P00533+Q15303+P21860 [L858R]; assay: Binding affinity to EGFR L858R mutant in mouse BaF3 cells at 10 uM incubated for 8 hrs by pull-down/Western blot analysis; format: cell-based
[24] = biological target: Epidermal growth factor receptor (Homo sapiens) (UniProt P00533); assay: Inhibition of EGFR in human NCI-H3255 cells assessed as decrease in ERK phosphorylation level at 0.22 to 20 uM; format: cell-based; details: dose 0.22-20 µM
NCI-H3255 [25] = assay: Inhibition of colony formation in human NCI-H3255 cells at 10 uM by Giemsa staining based assay; format: functional
[26] = biological target: Leucine-rich PPR motif-containing protein, mitochondrial (Homo sapiens) (UniProt P42704); assay: Binding affinity to LPPRC in human HepG2 cells at 10 uM incubated for 8 hrs by pull-down/LC-MS/MS analysis; format: cell-based
NCI-H3255 [27] = assay: cells; format: functional, cell-based; details: Homo sapiens, NCI-H3255, 72 h
Description: Growth inhibition of human NCI-H3255 cells harbouring EGFR L858R mutant incubated for 72 hrs by CCK8 assay

[28] = biological target: Epidermal growth factor receptor (Homo sapiens, UniProt P00533, L858R); assay: Inhibition of EGFR L858R mutant (unknown origin) using peptide substrate by FRET assay
BaF3 = assay: Growth inhibition of mouse BaF3 cells harbouring EGFR L858R mutant incubated for 72 hrs by CCK8 assay; format: functional, cell-based; details: BaF3, 72 h

Activity (Albumin [1]): Active
SMILES: C#Cc1ccc(OCc2ccc(S(=O)(=O)N(C)C#C)cc2)cc1

Activity [2]: Active | Activity (Catalase (Homo sapiens)): Active | Activity [4]: Active | Activity (Albumin [1]): Active | Activity (Homo sapiens): Active | Activity (Albumin [6]): Active | Activity [7]: Active | Activity [8]: Active | Activity [9]: Active | Activity [10]: Active | Activity (Albumin [11]): Active | Stability [12]: Stable | Activity [13]: Active
SMILES: C#Cc1ccc(S(=O)(=O)N(C)C#C)cc1
inhibition (HepG2 [3]): Active | Activity (HepG2 [5]): Active

inhibition [14]: Active | Activity [15]: Active | Activity (Albumin [1]): Active | Activity [17]: Active | Activity [18]: Active | Activity [20]: Active | Activity [21]: Active | IC50 (A549): 7.61 µM | inhibition [22]: Active | Activity [23]: Active | inhibition [24]: Active | Activity [26]: Active | IC50 (NCI-H3255 [27]): 1.89 µM | IC50 [28]: 5.67 µM | IC50 (BaF3): 1.71 µM
SMILES: C#Cc1cccc(Oc2ncnc3ccc(OCc4ccc(S(=O)(=O)N(C)C#C)cc4)cc23)c1
inhibition (NCI-H3255 [16]): Active | IC50 [19]: 6.48 µM | inhibition at 10 µM (NCI-H3255 [25]): 100%

IC50 (A549): > 50 µM | IC50 (NCI-H3255 [27]): 7.8 µM
SMILES: C#Cc1cccc(Oc2ncnc3ccc(OCc4ccc(S(=O)(=O)NC)cc4)cc23)c1
